Data reported in patent publication US9957257B2, “Amide compounds as 5-HT4 receptor agonists” (SUVEN LIFE SCIENCES LIMITED, priority 2015, dated 2018).

Assays:
[1] = Rodent pharmacokinetic study; type: in vivo, Male wistar rats; conditions: male, Wistar, plasma, rat; for bioavailability: 3 mg/kg oral vs 1 mg/kg intravenous
Description: Male wistar rats (225±25 grams) were used as experimental animals. Three to five animals were housed in each cage. Two days prior to dosing day, male wistar rats (225-250 grams) were anesthetized with isoflurane for surgical placement of jugular vein catheter. Animals were fasted overnight before oral dosing (p.o) and food pellets were allowed 2 hours post dosing, whereas during intravenous dosing food and water were provided as ad libitum. Three rats were dosed with test compounds (3 mg/kg) orally and intravenously (1 mg/kg).
At each time point blood was collected through jugular vein and immediately replenish with an equivalent volume of normal saline from freely moving rats. Collected blood was transferred into a labeled eppendr off containing 10 μL of heparin as anticoagulant. Typically blood samples were collected as following time points: Pre dose, 0.08 (only i.v.), 0.25, 0.5, 1, 2, 4, 6, 8, and 24 hours post dose-(n=3). Blood was centrifuged at 4000 rpm for 10 minutes. Plasma was prepared and stored frozen at −20° C. until analysis. The concentrations of the test compounds were quantified in plasma by qualified LC-MS/MS method using suitable extraction technique. The test compounds were quantified in the calibration range around 2-2000 ng/mL in plasma. Study samples were analyzed using calibration samples in the batch and quality control samples spread across the batch.
Pharmacokinetic parameters Cmax, Tmax, AUCt, T1/2 and Bioavailability were calculated by non-compartmental model using standard non-compartmental model by using WinNonLin 5.0.1 or Phoenix WinNonlin 6.2 version Software package.

[2] = Rodent brain penetration study; type: in vivo, Male Wistar rats; conditions: male, Wistar, rat, 3 mg/kg, oral (gavage), read-out: Single dose Brain Penetration (Cb/Cp)
Description: Male Wistar rats (225±25 grams) were used as experimental animals. Three animals were housed in each cage. Animals were given water and food ad libitum throughout the experiment and maintained on a 12 hours light/dark cycle. Brain penetration was determined in discrete manner in rats. One day prior to dosing day, male wistar rats (225-250 grams) were acclimatized. After acclimatization the rats were grouped according to their weight. In each group, 3 animals were kept in individual cage and allowed free access to food and water. At each time point (0.50, 1 and 2 hours) n=3 animals were used. The test compounds were suitably preformulated and administered orally at (free base equivalent) 3 mg/kg. Blood samples were removed via, cardiac puncture by using isoflurane anesthesia. The animals were sacrificed to collect brain tissue. Plasma was separated and brain samples were homogenized and stored frozen at −20° C. until analysis. The concentrations of the test compounds in plasma and brain were determined using LC-MS/MS method. The test compounds were quantified in plasma and brain homogenate by qualified LC-MS/MS method using suitable extraction technique. The test compounds were quantified in the calibration range of 1-500 ng/mL in plasma and brain homogenate. Study samples were analyzed using calibration samples in the batch and quality control samples spread across the batch. Extent of brain-plasma ratio was calculated (Cb/Cp).

[3] = Object recognition task model; type: in vivo, Male Wistar rats; conditions: p.o.
Description: The cognition enhancing properties of compounds of this invention were estimated by using this model.
Male Wistar rats (230-280 grams) were used as experimental animals. Four animals were housed in each cage. Animals were kept on 20% food deprivation before one day and given water ad libitum throughout the experiment and maintained on a 12 hours light/dark cycle. Also the rats were habituated to individual arenas for 1 hour in the absence of any objects.
One group of 12 rats received vehicle (1 mL/Kg) orally and another set of animals received compound of the formula (I) either orally or i.p., before one hour of the familiar (T1) and choice trial (T2).
The experiment was carried out in a 50×50×50 cm open field made up of acrylic. In the familiarization phase, (T1), the rats were placed individually in the open field for 3 minutes, in which two identical objects (plastic bottles, 12.5 cm height×5.5 cm diameter) covered in yellow masking tape alone (a1 and a2) were positioned in two adjacent corners, 10 cms from the walls. After 24 hours of the (T1) trial for long-term memory test, the same rats were placed in the same arena as they were placed in T1 trial. Choice phase (T2) rats were allowed to explore the open field for 3 minutes in presence of one familiar object (a3) and one novel object (b) (Amber color glass bottle, 12 cm high and 5 cm in diameter). Familiar objects presented similar textures, colors and sizes. During the T1 and T2 trial, explorations of each object (defined as sniffing, licking, chewing or having moving vibrissae whilst directing the nose towards the object at a distance of less than 1 cm) were recorded separately by stopwatch. Sitting on an object was not regarded as exploratory activity, however, it was rarely observed.
T1 is the total time spent exploring the familiar objects (a1+a2).
T2 is the total time spent exploring the familiar object and novel object (a3+b).
The object recognition test was performed as described by Behaviour Brain Research, 31 (1988), 47-59.

Radial arm maze = type: in vivo, rats; conditions: p.o.
Description: The cognition enhancing properties of test compounds of this invention were estimated by using this model.
Radial arm maze consists of a central hub of 45 cm diameter. Each arm was of dimension 42.5×15×24 cm. The maze was elevated to a height of 1 m above the ground. The animals were placed on a restricted diet until they reached approximately 85% of their free feeding weight. During this diet restriction period animals were habituated to the novel feed (pellets). Once the rats reached approximately 85% of their free feeding weight, rats were habituated to the maze on the 1st and 2nd day. […] Animals were randomized on day 2. On the subsequent days the treatment was given as per the allotment. Each animal was introduced into the maze individually for a period of 10 minutes. The arms were baited only once and the animal had to learn the rule that repeated arm entries would not be rewarded. The trial ended once the rat had visited 16 arms or 10 minutes were over or all the pellets were eaten. The arm entries were recorded using the software. Once the trial was over the rat was removed and the maze was cleaned using soap water.

[4] = biological target: T1, recombinant human 5-HT4 receptor (Homo sapiens, UniProt Q13639); assay: Determination of EC50 values for 5-HT4 receptor (CHO cells, pCRE-Luc reporter); type: cell-based; conditions: luciferase reporter, 4 hours incubation, read-out: 5-HT4 receptor agonistic binding in-vitro EC50
T1 construct: expressed in transfected cells
Description: A stable CHO cell line expressing recombinant human 5-HT4 receptor and pCRE-Luc reporter system was used for cell-based assay. The assay offers a non-radioactive based approach to determine binding of a compound to GPCRs. In this specific assay, the level of intracellular cyclic AMP, which is modulated by activation, or inhibition of the receptor is measured. The recombinant cells harbor luciferase reporter gene under the control of cAMP response element.
The above cells were grown in 96 well clear bottom white plates in Hams F12 medium containing 10% fetal bovine serum (FBS). Prior to the addition of compounds or standard agonist, cells were serum starved overnight. Increasing concentrations of test compounds were added in OptiMEM medium to the cells. The incubation was continued at 37° C. in CO2 incubator for 4 hours. Medium was removed and cells were washed with phosphate buffered saline. The cells were lysed and luciferase activity was measured in a Luminometer. Luminescence units were plotted against the compound concentrations using Graphpad software. EC50 values of the compounds were defined as the concentration required in stimulating the luciferase activity by 50%.

hERG = biological target: T2, hERG (Homo sapiens, UniProt Q12809); assay: Automated hERG patch clamp assay; type: cell-based; conditions: hERG-HEK293 cells, whole cell patch clamp
T2 construct: expressed in transfected cells; host or cells: HEK293 (hERG-HEK293)
Description: To study the cardiac safety of test compounds using automated hERG patch clamp assay, hERG-HEK293 cells were grown to 70% confluency and were harvested using accumax. The cells were then suspended in complete media and were incubated at 37° C. and 5% CO2 for 30 minutes before using these cells for the whole cell patch clamp assay. Whole cell patch clamp recordings were conducted on Nanion's Patchliner using I-V protocol of voltage step from holding potential of −80 mV to +40 mV for 500 ms and then to test potential for 500 ms and back to holding potential of −80 mV. Pulses were elicited every 10 seconds. Each test compound concentration was incubated for 5 minutes. Data analysis was done by plotting the raw data using Igor Pro software and IC50 values were calculated. Cells with resistance >1 Gohms and tail currents of >200 pA were taken into consideration for data analysis. Quinidine was used as positive control.

T2 sequence (Q12809 whole entry): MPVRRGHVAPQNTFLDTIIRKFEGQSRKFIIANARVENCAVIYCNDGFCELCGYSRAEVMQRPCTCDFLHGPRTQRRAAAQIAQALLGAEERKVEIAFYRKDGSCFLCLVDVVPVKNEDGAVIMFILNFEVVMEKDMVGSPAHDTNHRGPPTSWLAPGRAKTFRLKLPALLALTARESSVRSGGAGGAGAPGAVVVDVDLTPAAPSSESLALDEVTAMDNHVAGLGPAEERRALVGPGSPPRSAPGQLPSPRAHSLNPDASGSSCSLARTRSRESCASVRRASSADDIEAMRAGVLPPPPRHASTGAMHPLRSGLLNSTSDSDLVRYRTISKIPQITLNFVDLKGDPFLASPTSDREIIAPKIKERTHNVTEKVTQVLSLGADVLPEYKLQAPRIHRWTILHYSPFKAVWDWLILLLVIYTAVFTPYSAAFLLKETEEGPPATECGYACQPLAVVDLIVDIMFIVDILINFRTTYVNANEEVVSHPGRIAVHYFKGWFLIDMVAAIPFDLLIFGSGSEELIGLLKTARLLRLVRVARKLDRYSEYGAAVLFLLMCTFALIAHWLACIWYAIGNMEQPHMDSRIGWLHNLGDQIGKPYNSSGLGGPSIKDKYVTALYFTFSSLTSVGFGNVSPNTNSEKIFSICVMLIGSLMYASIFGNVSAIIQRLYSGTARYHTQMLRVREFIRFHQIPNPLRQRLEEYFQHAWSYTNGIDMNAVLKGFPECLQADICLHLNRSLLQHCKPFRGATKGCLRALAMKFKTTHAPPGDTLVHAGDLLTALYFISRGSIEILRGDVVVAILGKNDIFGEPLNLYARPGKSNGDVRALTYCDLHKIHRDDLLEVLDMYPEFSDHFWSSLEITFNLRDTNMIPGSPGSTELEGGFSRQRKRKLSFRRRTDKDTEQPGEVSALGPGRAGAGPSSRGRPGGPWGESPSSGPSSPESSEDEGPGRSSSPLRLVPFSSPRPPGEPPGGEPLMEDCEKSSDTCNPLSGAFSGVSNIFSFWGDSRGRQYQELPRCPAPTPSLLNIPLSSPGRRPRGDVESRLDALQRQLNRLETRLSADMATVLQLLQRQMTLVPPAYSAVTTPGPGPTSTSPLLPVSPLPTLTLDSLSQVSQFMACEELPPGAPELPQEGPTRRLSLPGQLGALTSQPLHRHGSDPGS
T1 sequence (Q13639 whole entry): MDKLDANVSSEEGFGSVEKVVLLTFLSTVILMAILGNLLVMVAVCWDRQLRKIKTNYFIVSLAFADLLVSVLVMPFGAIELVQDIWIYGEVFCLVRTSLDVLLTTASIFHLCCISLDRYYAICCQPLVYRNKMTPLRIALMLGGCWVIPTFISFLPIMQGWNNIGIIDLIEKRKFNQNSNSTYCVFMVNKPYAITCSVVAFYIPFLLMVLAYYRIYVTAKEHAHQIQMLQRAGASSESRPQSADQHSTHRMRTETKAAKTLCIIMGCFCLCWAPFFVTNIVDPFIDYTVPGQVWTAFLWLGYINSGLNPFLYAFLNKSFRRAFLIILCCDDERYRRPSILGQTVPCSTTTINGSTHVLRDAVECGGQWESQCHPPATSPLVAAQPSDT

Compound | AUC(0-t) ([1]; 1 mg/kg, intravenous (bolus)) [ng·h/mL] | half-life ([1]; 1 mg/kg, intravenous (bolus)) [min] | bioavailability [1] [%] | AUC(0-t) ([1]; 3 mg/kg, oral (gavage)) [ng·h/mL] | Cmax ([1]; 3 mg/kg, oral (gavage)) [ng/mL] | Tmax ([1]; 3 mg/kg, oral (gavage)) [min] | half-life ([1]; 3 mg/kg, oral (gavage)) [min] | Kp [2] | Exploration time mean ± S.E.M, Familiar object ([3]; 0.003 mg/kg) [s] | Exploration time mean ± S.E.M, Novel object ([3]; 0.003 mg/kg) [s] | Inference ([3]; 0.003 mg/kg) | Reversal of Scopolamine Induced amnesia - Effective dose range (Radial arm maze) | EC50 [4] [nM] | IC50 (hERG) [µM] | Exploration time mean ± S.E.M, Familiar object ([3]; 3 mg/kg) [s] | Exploration time mean ± S.E.M, Novel object ([3]; 3 mg/kg) [s] | Inference ([3]; 3 mg/kg) | Exploration time mean ± S.E.M, Familiar object ([3]; 0.3 mg/kg) [s] | Exploration time mean ± S.E.M, Novel object ([3]; 0.3 mg/kg) [s] | Inference ([3]; 0.3 mg/kg)
Nc1c(Cl)cc(C(=O)NCC2C3CN(CC4CCOCC4)CC23)c2c1CCCO2.O=C(O)C(O)C(O)C(=O)O (stereo not drawn) [Example 3, 5-Amino-6-chloro-N-{[3-(tetrahydro-2H-pyran-4-ylmethyl)-3-azabicyclo[3.1.0]hex-6-yl]methyl}chroman-8-carboxamide L(+)-tartarate] | 158 ± 7 | 114 | 68 ± 22 | 324 ± 105 | 131 ± 35 | 25.2 | 96 | 1.03 ± 0.02 | 9.9 ± 2.06 | 17.58 ± 2.24 | Active | 0.03 mg/kg, p.o. |  |  |  |  |  |  |  | 
CC(C)(O)CN1CC2C(CNC(=O)c3cc(Cl)c(N)c4c3OCCC4)C2C1 (stereo not drawn) [Example 37, 5-Amino-6-chloro-N-{[3-(2-hydroxy-2-methylpropyl)-3-azabicyclo[3.1.0]hex-6-yl]methyl}chroman-8-carboxamide L(+)-tartarate] |  |  |  |  |  |  |  |  |  |  |  |  | 1.1 to 5 | > 10 |  |  |  |  |  | 
CC(C)(O)CN1CCC(F)(CNC(=O)c2cc(Cl)c(N)c3c2OCCC3)CC1.O=C(O)C(O)C(O)C(=O)O [Example 44, 5-Amino-6-chloro-N-{[4-fluoro-1-(2-hydroxy-2-methylpropyl)-4-piperidinyl]methyl}chroman-8-carboxamide L(+)-tartarate] | 232 ± 14 | 90 | 25 ± 1 | 176 ± 10 | 110 ± 25 | 19.8 | 78 | 0.78 ± 0.06 |  |  |  |  |  | > 10 | 5.44 ± 1.02 | 14.64 ± 2.19 | Active |  |  | 
CC(C)(O)CN1CCC(F)(CNC(=O)c2cc(Br)c(N)c3c2OCCC3)CC1.O=C(O)C(O)C(O)C(=O)O [Example 48, 5-Amino-6-bromo-N-{[4-fluoro-1-(2-hydroxy-2-methylpropyl)-4-piperidinyl]methyl}chroman-8-carboxamide L(+)-tartarate] | 211 ± 41 | 90 | 35 ± 5 | 224 ± 33 | 167 ± 20 | 18.6 | 60 | 1 ± 0.16 |  |  |  |  |  |  | 7.02 ± 0.76 | 13.80 ± 1.74 | Active |  |  | 
Cc1cc2c(N)c(Cl)cc(C(=O)NCC3(F)CCN(CC(C)(C)O)CC3)c2o1.O=C(O)C(O)C(O)C(=O)O [Example 53, 4-Amino-5-chloro-2-methyl-N-{[4-fluoro-1-(2-hydroxy-2-methylpropyl)-4-piperidinyl]methyl}benzofuran-7-carboxamide L(+)-tartarate] | 147 ± 17 | 48 | 27 ± 20 | 250 ± 87 | 182 ± 26 | 19.8 | 96 | 2.53 ± 0.63 |  |  |  |  | 10.1 to 20 | > 10 |  |  |  | 8.24 ± 1.32 | 15.98 ± 1.75 | Active
